Experimental findings from patent US20110319484A1, “NEUROPROTECTIVE COMPOUNDS” (Parque Tecnologico de Ciencias de la Salud, priority 2009, published 2011) are described below.

Data set [1] is described as follows: Crossing of the blood-brain barrier by PAMPA in vitro assay. Particulars: acid forms, 100 μM, pH 7.4, 18 h. In kind it is in vitro ADME, pig. As to the method: To that end, the PAMPA (Parallel Artificial Membrane Permeation Assay) assay was used, which uses a sandwich system contemplating the crossing of compounds by means of passive diffusion, preventing active transport.
A mixture of commercial lipids derived from pig brain with a phospholipid composition very similar to that which forms the human BBB, called PBL (Porcine Polar Brain Lipid), was used to mimic the BBB, and it was stored at −20° C. dissolved in dodecane at 100 μg/ml in glass vials. The verapamil and theophylline were prepared at 10 mM in DMSO, whereas the acid forms of NST0003, NST0004 and NST0005 were prepared in water and were activated with 0.1 N NaOH at 4° C. for 12 h.
At the time of the assay, 1.5 ml of the compounds to be evaluated at 100 μM were prepared in a phosphate buffer at pH 7.4, maintaining a constant concentration of DMSO of 1%. 5 μl of PBL at 20 μg/ml were added in a 96-well filter plate, with a polyvinylidene fluoride (PVDF) membrane, with a pore size of […] (MAIPN4550, Millipore). After 2 minutes, 300 μl of the phosphate buffer used to dilute the compounds were added. This plate was considered the “acceptor” plate and was placed in the top part of the sandwich. 300 μl of the compounds were added at 100 μM on another 96-well plate which is assembled with the previous one (MATRNP550 of Millipore) (called “donor”) and in triplicate. […] After that time, 100 μl of the wells of the donor plates and of the acceptor plates were transferred to a special 96-well plate for ultraviolet (UV) reading. […] The plate was introduced in a spectrophotometer in which a scan was carried out in UV from 230 to 498 nm, with readings every 4 nm. From the data provided by the spectrophotometer the percentage of barrier crossing as well as the effective permeability (Pe) were calculated by applying the following formula:
[formula] […] [formula] • [Drug]acceptor=Absorbance of the acceptor well • [Drug]equilibrium=Absorbance of the mean of the basal wells/2 • VA=Volume of the acceptor well=0.3 cm^3 • VD=Volume of the donor well=0.3 cm^3 • Area=0.24 cm^2 • Time=64,000 s
(PAMPA measures passive passage across an artificial lipid membrane.)

Data set [2] addresses T1, HMG-CoA reductase enzyme (Homo sapiens, UniProt P04035).
T1 construct: the oxidation of the NADPH by the catalytic subunit of the HMG-CoA reductase
T1 sequence (P04035 340-888 limits assumed): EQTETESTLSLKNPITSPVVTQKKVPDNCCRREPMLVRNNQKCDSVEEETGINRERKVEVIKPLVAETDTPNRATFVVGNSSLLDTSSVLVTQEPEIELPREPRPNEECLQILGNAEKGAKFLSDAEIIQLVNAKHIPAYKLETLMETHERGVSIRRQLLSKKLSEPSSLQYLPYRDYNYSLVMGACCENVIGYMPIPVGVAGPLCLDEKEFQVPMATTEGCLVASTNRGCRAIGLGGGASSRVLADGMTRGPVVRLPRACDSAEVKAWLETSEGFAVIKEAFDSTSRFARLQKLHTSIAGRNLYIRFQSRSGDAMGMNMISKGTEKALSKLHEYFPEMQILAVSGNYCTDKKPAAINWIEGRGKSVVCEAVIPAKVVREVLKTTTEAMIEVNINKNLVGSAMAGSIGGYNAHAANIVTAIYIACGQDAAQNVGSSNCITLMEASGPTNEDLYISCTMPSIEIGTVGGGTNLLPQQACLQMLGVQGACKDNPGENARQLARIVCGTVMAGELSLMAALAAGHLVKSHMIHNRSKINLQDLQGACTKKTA
Description: HMG-CoA reductase inhibition, spectrophotometric NADPH oxidation at 340 nm. In kind it is biochemical. Particulars: for IC50: four independent assays, Trimmed Spearman-Karber method; for inhibition power of HMG-CoA reductase, times less than that of atorvastatin: relative to atorvastatin. The text has this:
To that end, the degree of inhibition of the HMG-CoA reductase enzyme by the different (1S,3R,7S,8S,8aR)-1,2,3,7,8,8a-hexahydro-3,7-dimethyl-8-[2-[(2R,4R)-tetrahydro-4-hydroxy-6-oxo-2H-pyran-2-yl]ethyl-1-naphthalenyl propanoate derivatives, optionally mono- or di-methylated at the carbon in the alpha position of propanoic acid (NST0003, NST0004 and NST0005) was studied.
During the reaction, the HMG-CoA reductase uses NADPH as a reducing agent and 3-hydroxy-3-methylglutaryl coenzyme A (HMG-CoA) as a substrate. Mevalonic acid, which serves as a substrate for the following reaction in order to continue with the cholesterol synthesis, is obtained as a reaction product. The enzymatic reaction object of study is schematically shown as follows:
This in vitro assay is based on the spectrophotometric measurement of the decrease of absorbance at 340 nm, representing the oxidation of the NADPH by the catalytic subunit of the HMG-CoA reductase in the presence of the HMG-CoA reductase substrate. The assay was carried out in a 96-well plate, with a total reaction volume of 200 μl. The reaction buffer (50 mM KH2PO4, 1 M KCl, 2 mg/ml bovine serum albumin (BSA) and 5 mM DTT, at pH=7.3) was prepared at the time of carrying out the reaction and was maintained at 37° C.
Four independent assays were carried out. […] The concentrations of the reagents involved in the reaction mixture were the following: 0.2 mM HMG-CoA, 3 μU/reaction HMG-CoA reductase and 0.2 mM NADPH. After brief agitation, the reading of the plate was taken in a spectrophotometer at the conditions of 340 nm, 37° C., detecting the decrease of absorbance at 340 nm over time. The percentage of HMG-CoA reductase enzymatic activity with respect to the control was calculated. The IC50 was calculated with the data obtained by means of the Trimmed Spearman-Karber method (Version 1.5).

Structures are written as SMILES. Entries after “also recorded” stand apart in the source; their conditions may differ.

What is called IC50 is the midpoint of a concentration-inhibition curve. `CCC(=O)O[C@H]1C[C@@H](C)C=C2C=C[C@H](C)[C@H](CC[C@@H]3C[C@@H](O)CC(=O)O3)[C@H]21` [NST0003, (1S,3R,7S,8S,8aR)-1,2,3,7,8,8a-hexahydro-3,7-dimethyl-8-[2-[(2R,4R)-tetrahydro-4-hydroxy-6-oxo-2H-pyran-2-yl]ethyl-1-naphthalenyl propanoate]: in data set [1], the “crossing of the blood-brain barrier” value is “capable of crossing the blood-brain barrier”. In data set [2], half-maximal inhibition (IC50) was put at 40.6 µM and the “inhibition power of HMG-CoA reductase, times less than that of atorvastatin” value (“inhibition power of HMG-CoA reductase” for short) came out at 170 times.

`CC(C)C(=O)O[C@H]1C[C@@H](C)C=C2C=C[C@H](C)[C@H](CC[C@@H]3C[C@@H](O)CC(=O)O3)[C@H]21` [NST0004]: the “crossing of the blood-brain barrier” value in data set [1] is “capable of crossing the blood-brain barrier”. In addition, in data set [2], it took 23.2 µM to reach half-maximal inhibition (IC50) and the “inhibition power of HMG-CoA reductase” value came out at 100 times.

On to `C[C@H]1C=C2C=C[C@H](C)[C@H](CC[C@@H]3C[C@@H](O)CC(=O)O3)[C@H]2[C@@H](OC(=O)C(C)(C)C)C1` [NST0005], for which the “crossing of the blood-brain barrier” value in data set [1] is “highest capacity to cross the BBB; also recorded: capable of crossing the blood-brain barrier”. For the same compound, in data set [2], the 50% inhibitory concentration (IC50) is 0.865 µM and the “inhibition power of HMG-CoA reductase” value is listed as 4 times.
